In patent US20240317722A1, “HETEROARYL-3-PIPERIDINEDIONE COMPOUND AND USE THEREOF” (Medshine Discovery Inc., priority 2021, published 2024):
Where two headings read alike, the source gives them in different places.

Experiments:
GSPT1 [1] = molecular target: T1, GSPT1 (Homo sapiens, UniProt P15170+Q96SW2); assay: Effect of degrading GSPT1 protein (Western blot) in BxPC-3 cells; assay type: cell-based; design: endogenous in cells; host or cells: BxPC-3; conditions: 10 μM, 1 μM and 0.1 μM, 24 hours, Western blot (FIG. 1)
T1 sequence (P15170 whole entry): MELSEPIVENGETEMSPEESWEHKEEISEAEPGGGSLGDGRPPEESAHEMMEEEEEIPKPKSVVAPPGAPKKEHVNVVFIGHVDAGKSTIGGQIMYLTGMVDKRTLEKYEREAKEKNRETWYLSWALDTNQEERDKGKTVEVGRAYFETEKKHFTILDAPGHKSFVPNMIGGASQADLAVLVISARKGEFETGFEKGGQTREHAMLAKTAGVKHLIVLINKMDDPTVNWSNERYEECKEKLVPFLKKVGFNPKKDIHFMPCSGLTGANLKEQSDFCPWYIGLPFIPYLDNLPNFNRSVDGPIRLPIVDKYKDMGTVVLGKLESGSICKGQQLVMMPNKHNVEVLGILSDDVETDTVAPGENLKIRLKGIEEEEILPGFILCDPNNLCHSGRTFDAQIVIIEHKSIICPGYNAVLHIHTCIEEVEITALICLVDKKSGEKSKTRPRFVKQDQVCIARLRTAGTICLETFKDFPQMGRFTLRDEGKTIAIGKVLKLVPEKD
T1 sequence (Q96SW2 whole entry): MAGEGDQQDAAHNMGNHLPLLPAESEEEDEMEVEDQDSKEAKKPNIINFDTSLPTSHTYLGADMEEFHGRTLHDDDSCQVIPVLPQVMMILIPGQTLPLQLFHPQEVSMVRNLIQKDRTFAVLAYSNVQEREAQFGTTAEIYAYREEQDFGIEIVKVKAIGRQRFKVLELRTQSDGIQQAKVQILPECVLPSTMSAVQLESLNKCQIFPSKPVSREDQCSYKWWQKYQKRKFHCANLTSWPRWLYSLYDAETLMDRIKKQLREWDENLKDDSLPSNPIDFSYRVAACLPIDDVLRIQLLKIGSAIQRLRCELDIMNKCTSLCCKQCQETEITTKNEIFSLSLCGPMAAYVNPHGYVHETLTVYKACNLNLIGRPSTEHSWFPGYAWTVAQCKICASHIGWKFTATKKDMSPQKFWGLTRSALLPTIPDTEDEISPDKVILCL
T1 sequence (Q16531 whole entry partner): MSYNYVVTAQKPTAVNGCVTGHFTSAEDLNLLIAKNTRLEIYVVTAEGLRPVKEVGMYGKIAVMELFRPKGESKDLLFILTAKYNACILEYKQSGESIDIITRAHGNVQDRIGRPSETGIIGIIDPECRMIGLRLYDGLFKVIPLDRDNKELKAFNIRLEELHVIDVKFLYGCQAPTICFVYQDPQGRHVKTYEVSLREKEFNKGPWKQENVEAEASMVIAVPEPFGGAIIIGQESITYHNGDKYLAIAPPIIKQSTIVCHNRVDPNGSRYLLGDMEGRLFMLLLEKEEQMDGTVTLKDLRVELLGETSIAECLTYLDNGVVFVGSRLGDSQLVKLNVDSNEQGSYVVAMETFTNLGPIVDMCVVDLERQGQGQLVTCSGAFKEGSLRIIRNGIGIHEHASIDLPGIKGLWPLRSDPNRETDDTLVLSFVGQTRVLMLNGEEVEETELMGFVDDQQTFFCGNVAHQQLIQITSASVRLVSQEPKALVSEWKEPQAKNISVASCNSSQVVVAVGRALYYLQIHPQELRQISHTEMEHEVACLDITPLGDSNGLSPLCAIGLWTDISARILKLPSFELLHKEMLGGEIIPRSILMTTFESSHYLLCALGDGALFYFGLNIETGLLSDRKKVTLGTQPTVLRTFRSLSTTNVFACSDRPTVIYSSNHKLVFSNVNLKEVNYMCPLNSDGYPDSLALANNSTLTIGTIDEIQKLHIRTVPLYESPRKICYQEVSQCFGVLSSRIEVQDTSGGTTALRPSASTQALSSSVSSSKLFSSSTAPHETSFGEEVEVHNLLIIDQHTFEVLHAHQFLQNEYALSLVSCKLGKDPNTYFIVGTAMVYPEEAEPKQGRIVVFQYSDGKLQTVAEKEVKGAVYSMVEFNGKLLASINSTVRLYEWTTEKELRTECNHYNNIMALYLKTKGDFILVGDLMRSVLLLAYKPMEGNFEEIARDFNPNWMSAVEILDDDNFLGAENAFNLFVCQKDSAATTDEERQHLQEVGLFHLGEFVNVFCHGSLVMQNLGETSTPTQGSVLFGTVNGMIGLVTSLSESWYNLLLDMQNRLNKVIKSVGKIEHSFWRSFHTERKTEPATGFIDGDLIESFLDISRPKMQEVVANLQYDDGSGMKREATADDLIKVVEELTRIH
Procedure: BxPC-3 cells were treated with 10 μM, 1 μM and 0.1 μM of the test compound respectively for 24 hours. The cells were collected and lysed, denatured at 100° C. for 20 minutes, and then subjected to Western blot analysis. β-actin was used as the internal reference protein to detect the protein level of GSPT1. The main steps included: 1) Electrophoresis: Biorad precast gel was used to separate proteins using SDS-PAGE electrophoresis; 2) Transfer to membrane: Biorad rapid transfer to membrane system was used to transfer the proteins on the gel to PVDF membrane; 3) Blocking: the PVDF membrane with Western blotting was placed into an antibody incubation box, and blocking solution was added to completely cover the PVDF membrane for incubation at room temperature for 1 hour; 4) Incubation of the primary antibody: the above PVDF membrane was covered with GSPT1 antibody diluent, and incubated on a shaker at 4° C. overnight, 5) Incubation of the secondary antibody: the membrane was washed three times with Wash buffer, and secondary antibody diluent (Anti-rabbit IgG, HRP-linked) was added for incubation on a shaker at room temperature for 1 hour; 5) Exposure: the membrane was washed three times with Wash buffer, and the band on the membrane was detected using chemiluminescence method (Clarity Western ECL Substrate).

MV4-11 = assay: Anti-proliferative effect in MV4-11 (CellTiter-Glo); assay type: cell-based; conditions: MV4-11, 3 days; for IC50: Homo sapiens, 72 h
Procedure: (§1) This assay studied the inhibitory effect of the compounds on cell proliferation by detecting the effect of the test compounds on the in vitro activity of tumor cells MV4-11 and MDA-MB-231.
(§2) The tumor cell lines were cultured in an incubator at 37° C., 5% CO2 or 0% CO2according to the above culture conditions. The cells were periodically passaged, and cells in logarithmic growth phase were taken for plating. • 2. Cell plating • (1). Cells were stained with trypan blue and viable cells were counted. • (2).
(§3) • (3). 90 μL of cell suspension was added to each well of the culture plate, and culture medium without cells was added to the blank control well. • (4). The plate was incubated overnight in an incubator at 37° C., 5% CO2 or 0% CO2, and 100% relative humidity. • 3. Preparation of a compound storage plate
(§4) Preparation of a 400× compound storage plate: The compounds were diluted with DMSO in a gradient from the highest concentration to the lowest concentration. The plates were prepared freshly at each time for use. • 4. Preparation of 10× compound working solution and treatment of cells with compounds • (1). Preparation of 10× compound working solution: compound or DMSO was added, and the well content was mixed to uniform by aspiration and expelling with pipette. 78 μL of cell culture medium was added to a 96-well plate with a V-shaped bottom. 2 μL of the compound from the 400× compound storage plate was added to the cell culture medium in the 96-well plate. 2 μL of DMSO was added to the vehicle control and the blank control. After adding compound or DMSO, the well content was mixed to uniform by aspiration and expelling with pipette. • (2). Dosing: 10 μL of 10× compound working solution was added to the cell culture plate. 10 μL of DMSO-cell culture mix solution was added to the vehicle control and blank control. • (3). The 96-well cell plate was placed back into the incubator and cultured for 3 days. • 5. CellTiter-Glo luminescence cell viability detection
The following steps were performed according to the instruction of Promega CellTiter-Glo luminescence cell viability detection kit (Promega-G7573). • (1). The CellTiter-Glo buffer was thawed and allowed to stand to reach room temperature; • (2). CellTiter-Glo substrate was allowed to stand to reach room temperature; • (3). 10 mL of CellTiter-Glo buffer was added to CellTiter-Glo substrate in a bottle to dissolve the substrate to formulate CellTiter-Glo working solution; • (4). The working solution was vortexed slowly for fully dissolution; • (5). […] The culture plates were left at room temperature for 10 minutes to stabilize the luminescence signal; • (9). The luminous signal was detected on the 2104 En Vision plate reader. • 6. […]

MDA-MB-231 = assay: Anti-proliferative effect in MDA-MB-231 (CellTiter-Glo); assay type: cell-based, human; conditions: MDA-MB-231, 3 days; for IC50: Homo sapiens, 72 h
Procedure: as §1, §2, §3, §4
The following steps were performed according to the instruction of Promega CellTiter-Glo luminescence cell viability detection kit (Promega-G7573). • (1). The CellTiter-Glo buffer was thawed and allowed to stand to reach room temperature; • (2). CellTiter-Glo substrate was allowed to stand to reach room temperature; • (3). 10 mL of CellTiter-Glo buffer was added to CellTiter-Glo substrate in a bottle to dissolve the substrate to formulate CellTiter-Glo working solution; • (4). The working solution was vortexed slowly for fully dissolution; • (5). The cell culture plates were taken out and allowed to stand for 30 minutes to equilibrate to room temperature; • (6). 50 μL (equal to half the volume of cell culture solution in each well) of Cell Titer-Glo working solution was added into each well. The cell plate was wrapped with aluminum foil to protect the cell plate from light; • (7). The culture plates were shaken on an orbital shaker for 2 minutes to induce cell lysis; • (8). The culture plates were left at room temperature for 10 minutes to stabilize the luminescence signal; • (9). The luminous signal was detected on the 2104 En Vision plate reader. • 6. Data analysis
The following formula was used to calculate the inhibition rate (IR) of the test compounds: IR (%)=(RLU of the vehicle control−RLU of the compound)/(RLU of the vehicle control−RLU of the blank control)*100%. The inhibition rates of the compounds at different concentrations were calculated in Excel, and then GraphPad Prism software was used to graph the inhibition curves and calculate the relevant parameters, including the minimum inhibition rate, maximum inhibition rate and IC50.

GSPT1 [2] = molecular target: T1, GSPT1; assay: Target protein degradation in HEK293T-LgBiT_GSPT1-nHiBiT cells (HiBiT luminescence); assay type: cell-based; design: expressed in transfected cells; conditions: 16 to 18 hours; for Dmax: read-out: Max. DR (maximum degradation rate)
Procedure: This assay was performed to detect the degradation effect of the test compound on the target protein GSPT1 in HEK293T-LgBiT cells.
• 1. Preparation of compounds • (1). Dissolving the powder of the test compound with DMSO to 10 mM as the storage concentration, and using a pipette to manually draw 9 μL of 10 mM or 3 mM test compound to columns 1 and 13 of a LDV plate; • (2). Using multidrop Combi to add 6 μL of DMSO to columns 2-12 and 14-24; • (3). Using Bravo to dilute the test compound 3 times (3 μL+6 μL) from columns 1 to 11 and 13 to 23; • (4). According to the layout of the plate, using Echo to transfer 25 nL of compound solution (columns 1-24 of the LDV plate) to the assay plate; • (5). Using Echo to transfer 25 nL of 1 mM positive control solution to the assay plate as a 100% degradation control (i.e. LC, HPE), and to transfer 25 nL of DMSO to the assay plate as a 0% control (i.e. HC, ZPE). • 2. Cell plating • (1). Discarding the cell culture medium, and washing the cells once with DPBS; then the cells were trypsinized, counted, and used to prepare a cell suspension of 4×10^5 cells/mL; • (2). Using MultiDrop Combi to add 25 μL/well of cell suspension at medium speed to the assay plate containing the test compound; • (3). Putting the assay plate containing cells back into the incubator and culturing it at 37° C. and 5% CO2 for 16 to 18 hours.
• (1). Using MultiDrop Combi to add 25 μL/well of detection reagent (NanoGlo lysis solution+substrate+LgBit protein) to the assay plate at high speed, and shaking for 10 minutes; • (2). Centrifuging at 2000 rpm×1 min to remove bubbles; • (3). Reading the plate using Envision, US Luminescence detection method.
The following formula was used to calculate the degradation rate (DR) of the test compound: DR (%)=(RLU of vehicle control−RLU of compound)/(RLU of vehicle control−RLU of positive control)*100%, wherein the vehicle control was a blank control. The degradation rates of compounds at different concentrations were calculated in Excel, and then XLFit software was used to obtain inhibition curves and to calculate relevant parameters, including the minimum degradation rate, maximum degradation rate and DC50.

[3] = Pharmacokinetics of compounds in mice; assay type: in vivo, C57BL/6N mice; conditions: for bioavailability / clearance / Vd / half-life: male, C57BL/6N, mouse, plasma; for bioavailability: read-out: Bioavailability F; for Vd: read-out: Apparent volume of distribution; for half-life: read-out: Elimination half-life (converted)
Excerpt: In this study, C57BL/6N male mice were selected as the test animals, and the LC/MS/MS method was used to quantitatively determine the drug concentration in the plasma of mice intravenously or orally administered the test compounds, so as to evaluate the pharmacokinetic profile of the test compounds in mice.
C57BL/6N mice (male, 20-30 g, 7-10 weeks old, Beijing Vital River).
A clear solution or suspension of the test compound was intravenously injected into C57BL/6N mice (fasted overnight) via tail or given to C57BL/6N mice (fasted overnight) by gavage. For intravenous injection administration, blood was collected from the cheek at 0 h (before administration) and 0.083, 0.25, 0.5, 1, 2, 4, 6, 8, and 24 h after administration. Each sample was collected about 0.05 mL. Heparin sodium was added to anti-coagulate. Plasma samples were collected and placed on wet ice, and centrifuged within 1 hour to separate the plasma (centrifugation conditions: 6000 g, 3 minutes, 2-8° C.). Blood samples were stored in a −80° C. refrigerator before analysis; For oral gavage administration, blood was collected from the cheek at 0 h (before administration) and 0.083, 0.25, 0.5, 1, 2, 4, 6, 8, 24 h after administration. Each sample was collected about 0.05 mL. Heparin sodium was added to anti-coagulate. Plasma samples were collected and placed on wet ice, and centrifuged within 1 hour to separate the plasma (centrifugation conditions: 6000 g, 3 minutes, 2-8° C.). Blood samples were stored in a −80° C. refrigerator before analysis. Through blood drug concentration data at different time points, Phoenix WinNonlin8.2.0 was used to calculate pharmacokinetic parameters, providing parameters such as AUC0-t, AUC0-∞, MRT0-∞, Cmax, Tmax, and T1/2, etc. and their mean and standard deviation.

[4] = administration by gavage, 10 mg/kg

**Q.** Which “effect of promoting the degradation of GSPT1 protein” value (GSPT1 [1]) does the source give for `Cc1ccc(NC(=O)NCc2ccc3occ(C4CCC(=O)NC4=O)c3c2)cc1Cl` (stereo not shown) [WX001] here?
**A.** significant effect of promoting the degradation of GSPT1 protein

**Q.** And the IC50 (MV4-11)?
**A.** 30.5 nM

**Q.** And the “Max. IR (maximum inhibition rate)” value (MV4-11)?
**A.** 99.95%

**Q.** And the IC50 (MDA-MB-231)?
**A.** 57.2 nM

**Q.** And the “Max. IR (maximum inhibition rate)” value (MDA-MB-231)?
**A.** 69.41%

**Q.** For `O=C(COc1cccc(-c2csc(N3CCOCC3)n2)c1)NCCCCCCC(=O)Nc1ccc2c(C3CCC(=O)NC3=O)coc2c1` (stereo not shown) [WX003], which IC50 (MV4-11) is on record?
**A.** 6 nM

**Q.** And the “Max. IR (maximum inhibition rate)” value (MV4-11)?
**A.** 100.15%

**Q.** What about the IC50 (MDA-MB-231) of the same compound?
**A.** 52.4 nM

**Q.** And the “Max. IR (maximum inhibition rate)” value (MDA-MB-231)?
**A.** 65.29%

**Q.** Which DC50 (GSPT1 [2]) does the source give for `Cc1c(Cl)cc(NC(=O)NCc2ccc3c(C4CCC(=O)NC4=O)coc3c2)cc1OCCN1CCOCC1` (stereo not shown) [WX006] here?
**A.** 1.94 nM

**Q.** What about the Dmax (GSPT1 [2]) of the same compound?
**A.** 99.9%

**Q.** And the “Area under the plasma concentration-time curve (0-inf)” value (“Area” below) [3, 4]?
**A.** 2.71 µM·h

**Q.** And the Peak concentration [3, 4]?
**A.** 1.76 µM

**Q.** What about the Time to peak [3, 4] of the same compound?
**A.** 0.50 h

**Q.** And the “Area” value ([3]; intravenous injection, 1 mg/kg)?
**A.** 1.90 µM·h

**Q.** What about the bioavailability ([3]; PO 10 mg/kg vs IV 1 mg/kg) of the same compound?
**A.** 14.2%

**Q.** And the clearance ([3]; intravenous injection, 1 mg/kg)?
**A.** 15.8 mL/min/kg

**Q.** And the Vd ([3]; intravenous injection, 1 mg/kg)?
**A.** 2.3 L/kg

**Q.** And the half-life ([3]; intravenous injection, 1 mg/kg)?
**A.** 3.62 h

**Q.** And the IC50 (MDA-MB-231)?
**A.** 4.7 nM

**Q.** What about the “Max. IR (maximum inhibition rate)” value (MDA-MB-231) of the same compound?
**A.** 80.3%

**Q.** With `Cc1c(Cl)cc(NC(=O)NCc2ccc3c(C4CCC(=O)NC4=O)noc3c2)cc1OCCN1CCOCC1` (stereo not shown) [WX012] as the compound, how does the DC50 (GSPT1 [2]) read?
**A.** 1.18 nM

**Q.** What about the Dmax (GSPT1 [2]) of the same compound?
**A.** 99.8%

**Q.** What about the “Area” value [3, 4] of the same compound?
**A.** 1.99 µM·h

**Q.** And the Peak concentration [3, 4]?
**A.** 0.69 µM

**Q.** What about the Time to peak [3, 4] of the same compound?
**A.** 1.08 h

**Q.** What about the “Area” value ([3]; intravenous injection, 2 mg/kg) of the same compound?
**A.** 6.45 µM·h

**Q.** What about the bioavailability ([3]; PO 10 mg/kg vs IV 2 mg/kg) of the same compound?
**A.** 6.18%

**Q.** What about the clearance ([3]; intravenous injection, 2 mg/kg) of the same compound?
**A.** 9.5 mL/min/kg

**Q.** What about the Vd ([3]; intravenous injection, 2 mg/kg) of the same compound?
**A.** 0.41 L/kg

**Q.** And the half-life ([3]; intravenous injection, 2 mg/kg)?
**A.** 1.85 h
